Experimental data published in US6818203B2, “Use of perfluoroalkyl-containing metal complexes as contrast media in MR-imaging for visualization of plaque, tumors and necroses” (Schering Aktiengesellschaft, priority 2000, dated 2004).

Tests used:
Type in all cases: physicochemical
[1] = proton relaxivity in plasma (R^1), Minispec P 20; conditions: 40° C., 0.47 tesla, bovine plasma
Method: As a third criterion, the proton-relaxivity in plasma (R^1) at 40° C. and a field strength of 0.47 tesla is used. The relaxivity, which is indicated in [l/mmol·s], is the quantitative measurement for the shortening of relaxation time T^1 of the protons. For the purpose according to the invention, the relaxivity must be as high as possible and >10 l/mmol·s, preferably >13 l/mmol·s, especially preferably >15 l/mmol·s.
Relaxivity R^1 [l/mmol·s] of the MR-contrast media according to the invention was determined with the Minispec P 20 device of the Bruker Company. The measurements were taken at 40° C. and a field strength of 0.47 tesla. Eight measuring points were recorded by each T1-sequence: 180°-TI-90°, inversion recovery. As a medium, bovine plasma of the Kraeber Company was used. The contrast medium concentrations [mmol/l] in the batches were between 0.30 and 1.16.

[2] = critical micelle formation concentration (CMC) by tensiometry
Method: In aqueous systems, these amphiphilic molecules show the properties that are characteristic of standard surfactants (such as, e.g., sodium dodecylsulfate, SDS). They thus reduce the surface tension of water. By tensiometry, the so-called CMC (critical micelle formation concentration in mol/l) can be determined. In this respect, the surface tension is determined based on the concentration of the substance to be measured. The CMC can be calculated from the plot of the surface tension function (c) that is obtained. The critical micelle formation concentration of the compounds according to the invention must be <10^−3 mol/l, preferably <10^−4 mol/l.
(§1) Both the determination of the CMC and the photon correlation spectroscopy are described in H.-D. Dörfler, “Grenzflächen- und Kolloidchemie [Interface and Colloid Chemistry],” Weinheim, New York, Basel, Cambridge, Tokyo, VSH 1994.

[3] = hydrodynamic micelle diameter (2 Rh) by photon correlation spectroscopy (PCS)
Source text: The amphiphilic compounds according to the invention are combined in solution and are present as aggregates. The size (2 Rh) of such aggregates (e.g., micelles, rods, wafers, etc.) can be determined with the aid of […] (PCS).
As a second criterion, the hydrodynamic micelle diameter 2 Rh, which must be >1 nm, is therefore used. Those perfluoroalkyl-containing metal complexes according to the invention whose 2 RH is ≧3, quite especially preferably >4 nm, are especially suitable.
as §1

Row | R^1 Plasma (relaxivity) [1] [mmol⁻¹ s⁻¹] | CMC (critical micelle formation concentration) [2] [mol/L] | 2 Rh (hydrodynamic micelle diameter) [3] [nm] | Compound
1 | 30.3 | 5.2e-05 | 3.0 | COCCOCCOCCOCCOCCN(CCOCCC(F)(F)C(F)(F)C(F)(F)C(F)(F)C(F)(F)C(F)(F)C(F)(F)C(F)(F)F)C(=O)CNC(=O)C(C)N1CCN(CC(=O)[O-])CCN(CC(=O)[O-])CCN(CC(=O)[O-])CC1.[Gd+3] (stereo not drawn) [metal complex VII]
2 | 21.2 | 2.92e-05 | 25 | CC(C(=O)NCC(=O)N(CCOCCO)CCOCCC(F)(F)C(F)(F)C(F)(F)C(F)(F)C(F)(F)C(F)(F)C(F)(F)C(F)(F)F)N1CCN(CC(=O)[O-])CCN(CC(=O)[O-])CCN(CC(=O)[O-])CC1.[Gd+3] (stereo not drawn) [metal complex VIII]
3 | 21.3 | 3.9e-05 | 4.9 | CC(C(=O)NCC(=O)NCCCC[C@H](NC(=O)CNC(=O)C(C)N1CCN(CC(=O)[O-])CCN(CC(=O)[O-])CCN(CC(=O)[O-])CC1)C(=O)N1CCN(S(=O)(=O)C(F)(F)C(F)(F)C(F)(F)C(F)(F)C(F)(F)C(F)(F)C(F)(F)C(F)(F)F)CC1)N1CCN(CC(=O)[O-])CCN(CC(=O)[O-])CCN(CC(=O)[O-])CC1.[Gd+3].[Gd+3] (stereo partly drawn) [metal complex XVI]
4 | 30.5 | 1.07e-05 | 7.4 | CCN(CCCCCC(=O)NCC(O)CN1CCN(CC(=O)[O-])CCN(CC(=O)[O-])CCN(CC(=O)[O-])CC1)S(=O)(=O)C(F)(F)C(F)(F)C(F)(F)C(F)(F)C(F)(F)C(F)(F)C(F)(F)C(F)(F)F.[Gd+3] (stereo not drawn) [metal complex XII, Gadolinium complex of 10-[2-hydroxy-4-aza-5-oxo-11-aza-11-(perfluorooctyl-sulfonyl)-tridecyl]-1,4,7-tris(carboxymethyl) 1,4,7,10-tetraazacyclododecane]
5 | 34.0 | 3.25e-06 | 4.3 | O=C([O-])CN1CCN(CC(=O)[O-])CCN(CC(O)CNC(=O)CN(Cc2ccccc2)S(=O)(=O)C(F)(F)C(F)(F)C(F)(F)C(F)(F)C(F)(F)C(F)(F)C(F)(F)C(F)(F)F)CCN(CC(=O)[O-])CC1.[Gd+3] (stereo not drawn) [metal complex XIII, Gadolinium complex of 10-[2-hydroxy-4-aza-5-oxo-7-aza-7-(perfluorooctyl-sulfonyl)-8-phenyl-octyl]-1-4-7-tris(carboxymethyl)-1,4,7,10-tetraazacyclododecane]
6 | 27.5 | 1.44e-05 | 3.2 | O=C([O-])CN1CCN(CC(=O)[O-])CCN(CC(O)COCCC(F)(F)C(F)(F)C(F)(F)C(F)(F)C(F)(F)C(F)(F)C(F)(F)C(F)(F)F)CCN(CC(=O)[O-])CC1.[Gd+3] (stereo not drawn) [metal complex VI, Gadolinium complex of 10-[2-hydroxy-4-oxa-1H,1H,2H,2H,3H,3H,5H,5H,6H,6H-perfluorotetradecyl]-1,4,7-tris(carboxymethyl)-1,4,7,10-tetraazacyclododecane]
